Laboratory results reported in US20020028938A1, “Prostaglandin endoperoxide H synthase biosynthesis inhibitors” (priority 1997, published 2002).

How the values were obtained:
[1] = target: T1, recombinant human Cox-1 (r-hu Cox1) (Homo sapiens, UniProt P23219); experiment: Recombinant human PGHS-1 enzyme assay (RHUCX1); assay type: biochemical
T1 construct: made in house; host or cells: baculovirus/Sf9 insect cells (microsomes)
Protocol: (§1) To compare the mean responses of the treatment groups, analysis of variance was applied. Percent inhibition values were determined by comparing the individual treatment mean values to the mean of the control group. Linear regression was used to estimate IC50's/ED50's in appropriate assays.
(§2) EIA reagents for prostaglandin determination were purchased from Perseptive Diagnostics, (Cambridge, Mass.). Prostaglandin E2 (PGE2) levels in lavage fluids were determined after the samples were dried under nitrogen and reconstituted with assay buffer. PGE2 levels in enzyme assays or cell culture media were measured against standards prepared in the same milieu. The immunoassays were conducted as recommended by the manufacturer. The EIA was conducted in 96 well microtiter plates (Nunc Roskilde, Denmark) and optical density was measured using a microplate reader (Vmax, Molecular Devices Corp., Menlo Park, Calif.).
(§3) Inhibition of prostaglandin biosynthesis in vitro was evaluated using recombinant human Cox-1 (r-hu Cox1) and Cox-2 (r-hu Cox-2) enzyme assays. […] The reaction was allowed to run for 2.5 minutes at room temperature prior to quenching with HCl and neutralization with NaOH. PGE2 production in the presence and absence of the drug was determined by EIA analysis. The EIA was conducted in 96 well microtiter plates (Nunc Roskilde, Denmark) and optical density was measured using a microplate reader (Vmax, Molecular Devices Corp., Menlo Park, Calif.). EIA reagents for prostaglandin determination were purchased from Perseptive Diagnostics (Cambridge, Mass.). PGE2 levels were measured against standards prepared in the same milieu. The immunoassays were conducted as recommended by the manufacturer.

[2] = target: T2, recombinant human Cox-2 (r-hu Cox-2) (Homo sapiens, UniProt P35354); experiment: Recombinant human PGHS-2 enzyme assay (RHUCX2); assay type: biochemical; conditions: for IC50: read-out: RHUCX2 IC50 (parenthetical value)
T2 construct: made in house; host or cells: baculovirus/Sf9 insect cells (microsomes)
T2 sequence (P35354 18-604): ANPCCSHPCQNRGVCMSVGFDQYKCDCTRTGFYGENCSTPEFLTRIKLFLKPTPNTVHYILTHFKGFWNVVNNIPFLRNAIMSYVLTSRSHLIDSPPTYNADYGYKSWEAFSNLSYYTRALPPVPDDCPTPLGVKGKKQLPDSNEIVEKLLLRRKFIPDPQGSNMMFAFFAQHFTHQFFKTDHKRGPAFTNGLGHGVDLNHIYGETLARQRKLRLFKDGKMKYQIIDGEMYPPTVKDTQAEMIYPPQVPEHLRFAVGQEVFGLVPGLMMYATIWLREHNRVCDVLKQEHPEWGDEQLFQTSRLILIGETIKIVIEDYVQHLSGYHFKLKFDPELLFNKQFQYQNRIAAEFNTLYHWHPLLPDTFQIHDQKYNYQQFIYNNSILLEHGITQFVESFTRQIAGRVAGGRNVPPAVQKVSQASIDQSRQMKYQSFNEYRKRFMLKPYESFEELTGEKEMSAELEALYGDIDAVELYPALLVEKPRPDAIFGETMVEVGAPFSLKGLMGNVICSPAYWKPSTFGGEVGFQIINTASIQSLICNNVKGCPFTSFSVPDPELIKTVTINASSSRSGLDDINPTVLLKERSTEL
Protocol: as §1, §2, §3

T1 sequence (P23219 24-599): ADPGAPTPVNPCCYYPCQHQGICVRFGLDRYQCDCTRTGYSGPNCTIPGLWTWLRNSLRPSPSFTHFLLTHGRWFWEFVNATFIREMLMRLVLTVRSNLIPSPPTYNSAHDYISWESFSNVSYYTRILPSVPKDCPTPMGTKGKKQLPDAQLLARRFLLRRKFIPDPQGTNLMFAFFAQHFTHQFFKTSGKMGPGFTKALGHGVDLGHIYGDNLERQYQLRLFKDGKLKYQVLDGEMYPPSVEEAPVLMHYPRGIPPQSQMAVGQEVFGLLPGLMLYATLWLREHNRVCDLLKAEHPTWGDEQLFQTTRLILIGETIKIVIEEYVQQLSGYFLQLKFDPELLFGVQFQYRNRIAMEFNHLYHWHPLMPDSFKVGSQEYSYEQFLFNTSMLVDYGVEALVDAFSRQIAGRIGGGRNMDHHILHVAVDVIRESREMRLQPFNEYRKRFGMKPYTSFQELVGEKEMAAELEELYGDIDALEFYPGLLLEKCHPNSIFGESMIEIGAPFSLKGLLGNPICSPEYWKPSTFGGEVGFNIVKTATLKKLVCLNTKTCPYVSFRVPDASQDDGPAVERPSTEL

Compound | RHUCX1 % Inh. at Dose (μM) ([1]; 100 μM) | RHUCX2 % Inh. at Dose (μM) ([2]; 0.1 μM) | RHUCX2 % Inh. at Dose (μM) ([2]; 1 μM) | melting point | other results
2-(2,2,2-Trifluoroethyl)-4-(4-methoxyphenoxy)-5-[4-(methylsulfonyl)phenyl]-3(2H)-pyridazinone [Example 262] | 15 @ 100% |  |  |  | IC50 [2]: 432 nM
2-(2-Hexyl)-4-(4-fluorophenyl)-5-[4-(methylsulfonyl)phenyl]-3(2H)-pyridazinone [Example 118] | 31 @ 100% | 72 @ 0.1% |  |  | RHUCX2 % Inh. at Dose (μM) ([2]; 0.01 μM): 17 @ 0.01%
2-(3-Chlorophenyl)-4-(cyclopentylmethyl)-5-[4-(methylsulfonyl)phenyl]-3(2H)-pyridazinone [Example 364] | 0 @ 100% | 0 @ 0.1% | 86 @ 1% |  | 
CS(=O)(=O)c1ccc(-c2cnn(CC#Cc3ccccc3)c(=O)c2-c2ccc(F)cc2)cc1 [Example 21, 2-(Phenylpropargyl)-4-(4-fluorophenyl)-5-[4-(methylsulfonyl)phenyl]-3(2H)-pyridazinone] | 19 @ 100% |  |  |  | IC50 [2]: 920 nM
C=C(C)Cn1ncc(-c2ccc(S(C)(=O)=O)cc2)c(-c2ccc(F)cc2)c1=O [Example 23, 2-(Methyl-2-propenyl)-4-(4-fluorophenyl)-5-[4-(methylsulfonyl)phenyl]-3(2H)-pyridazinone] | 0 @ 100% | 68 @ 0.1% |  |  | RHUCX2 % Inh. at Dose (μM) ([2]; 0.01 μM): 27 @ 0.01%
CS(=O)(=O)c1ccc(-c2cnn(Cc3ccccc3)c(=S)c2-c2ccc(F)cc2)cc1 [Example 32, 2-Benzyl-4-(4-fluorophenyl)-5-[4-(methylsulfonyl)phenyl]-3(2H)-pridazinethione] | 20 @ 100% | 83 @ 0.1% | 96 @ 1% |  | 
CS(=O)(=O)c1ccc(-c2cnn(CC(=O)c3ccc(F)cc3F)c(=O)c2-c2ccc(F)cc2)cc1 [Example 41, 2-(2,4-Difluorophenacyl)-4-(4-fluorophenyl)-5-[4-(methylsulfonyl)phenyl]-3(2H)-pyrdazinone] | 13 @ 100% | 17 @ 0.1% | 49 @ 1% |  | 
CS(=O)(=O)c1ccc(-c2cnn(Cc3ccc(Cl)s3)c(=O)c2-c2ccc(F)cc2)cc1 [Example 42] | 0 @ 100% | 92 @ 0.1% | 99 @ 1% |  | 
C#CCn1ncc(-c2ccc(S(C)(=O)=O)cc2)c(-c2ccc(F)cc2)c1=O [Example 48, 2-(Propargyl)-4-(4-fluorophenyl)-5-[4-(methylsulfonyl)phenyl]-3(2H)-prridazinone] | 0 @ 100% | 2 @ 0.1% | 73 @ 1% |  | 
CS(=O)(=O)c1ccc(-c2cnn(Cc3ccsc3)c(=O)c2-c2ccc(F)cc2)cc1 [Example 60] | 7 @ 100% |  |  |  | RHUCX2 % Inh. at Dose (μM) ([2]; 1,000 μM): 100 @ 1,000%
Cc1nn(CC(F)(F)F)c(=O)c(-c2ccc(F)cc2)c1-c1ccc(S(C)(=O)=O)cc1 [Example 64] |  | 36 @ 0.1% | 34 @ 1% |  | RHUCX1 % Inh. at Dose (μM) ([1]; 1 μM): 68 @ 1%
CS(=O)(=O)c1ccc(-c2cnn(CC(F)(F)F)c(=O)c2OC2CCCCC2)cc1 [Example 84] |  |  |  |  | RHUCX1 % Inh. at Dose (μM) ([1]; 1 μM): 9 @ 1%; RHUCX1 % Inh. at Dose (μM) ([1]; 10 μM): 49 @ 10%; RHUCX2 % Inh. at Dose (μM) ([2]; 0.3 μM): 87 @ 0.3%
CS(=O)(=O)c1ccc(-c2cnn(CC(F)=C(F)F)c(=O)c2-c2ccc(F)cc2)cc1 [Example 88] | 0 @ 100% | 35 @ 0.1% |  |  | RHUCX2 % Inh. at Dose (μM) ([2]; 1,000 μM): 97 @ 1,000%
CS(=O)(=O)c1ccc(-c2cnn(-c3csc4ccccc34)c(=O)c2-c2ccc(F)cc2)cc1 [Example 107] |  | 36 @ 0.1% | 86 @ 1% |  | RHUCX1 % Inh. at Dose (μM) ([1]; 1 μM): 50 @ 1%; RHUCX1 % Inh. at Dose (μM) ([1]; 10 μM): 88 @ 10%
CS(=O)(=O)c1ccc(-c2cnn(-c3cccc(Br)c3)c(=O)c2Oc2ccc(F)cc2)cc1 [Example 110] | 5 @ 100% | 50 @ 0.1% | 93 @ 1% |  | 
CC1CCC(n2ncc(-c3ccc(S(C)(=O)=O)cc3)c(-c3ccc(F)cc3)c2=O)C1 (stereo not shown) [Example 133] | 23 @ 100% |  |  |  | IC50 [2]: 358 nM
CC(C)(O)CCOc1c(-c2ccc(S(C)(=O)=O)cc2)cnn(-c2ccc(Cl)c(Cl)c2)c1=O [Example 532, 2-(3,4-Dichlorophenyl)-4-(3-hydroxy-3-methyl-1-butoxy)-5-[4-(methylsulfonyl)phenyl]-3(2H)-pyridazinone] |  |  |  | 118 to 120 °C | 
CC(C)COc1c(-c2ccc(S(C)(=O)=O)cc2)cnn(-c2ccc(F)c(Cl)c2)c1=O [Example 537, 2-(3-Chloro-4-fluorophenyl)-4-(2-methyl-1-propoxy)-5-[4-(methylsulfonyl)phenyl]-3(2H)-pyridazinone] |  |  |  | 116 to 120 °C | 
CC(C)CCOc1c(-c2ccc(S(C)(=O)=O)cc2)cnn(-c2ccc(F)c(Cl)c2)c1=O [Example 538, 2-(3-Chloro-4-fluorophenyl)-4-(3-methyl-1-butoxy)-5-[4-(methylsulfonyl)phenyl]-3(2H)-pyridazinone] |  |  |  | 148 to 152 °C | 
CC(C)COc1c(-c2ccc(S(C)(=O)=O)cc2)cnn(-c2ccc(Cl)c(Cl)c2)c1=O [Example 539, 2-(3,4-Dichlorophenyl)-4-(2-methyl-1-propoxy)-5-[4-(methylsulfonyl)phenyl]-3(2H)-pyridazinone] |  |  |  | 127 to 129 °C | 
CC(C)CCOc1c(-c2ccc(S(C)(=O)=O)cc2)cnn(-c2ccc(Cl)c(Cl)c2)c1=O [Example 540, 2-(3,4-Dichlorophenyl)-4-(3-methyl-1-butoxy)-5-[4-(methylsulfonyl)phenyl]-3(2H)-pyridazinone] |  |  |  | 130 to 134 °C | 
CS(=O)(=O)c1ccc(-c2cnn(-c3ccc(F)c(F)c3)c(=O)c2OCCCCO)cc1 [Example 541, 2-(3,4-Difluorophenyl)-4-(4-hydroxy-1-butoxy)-5-[4-(methylsulfonyl)phenyl]-3(2H)-pyridazinone] |  |  |  | 110 to 113 °C | 
CC(C)COc1c(-c2ccc(S(C)(=O)=O)cc2)cnn(-c2cccc(C(F)(F)F)c2)c1=O [Example 542, 2-[3-(Trifluoromethyl)phenyl]-4-(2-methyl-1-propoxy)-5-[4-(methylsulfonyl)phenyl]-3(2H)-pyridazinone] |  |  |  | 125 to 127 °C | 
CC(C)CCOc1c(-c2ccc(S(C)(=O)=O)cc2)cnn(-c2cccc(C(F)(F)F)c2)c1=O [Example 543, 2-[3-(Trifluoromethyl)phenyl]-4-(3-methyl-1-butoxy)-5-[4-(methylsulfonyl)phenyl]-3(2H)-pyridazinone] |  |  |  | 82 to 85 °C | 
CC(C)(O)CCOc1c(-c2ccc(S(C)(=O)=O)cc2)cnn(-c2cccc(C(F)(F)F)c2)c1=O [Example 544, 2-[3-(Trifluoromethyl)phenyl]-4-(3-hydroxy-3-methyl-1-butoxy)-5-[4-(methylsulfonyl)phenyl]-3(2H)-pyridazinone] |  |  |  | 90 to 93 °C | 
C[C@H](O)CCOc1c(-c2ccc(S(C)(=O)=O)cc2)cnn(-c2ccc(F)c(F)c2)c1=O [Example 546, (S)-2-(3,4-Difluorophenyl)-4-(3-hydroxy-1-butoxy)-5-[4-(methylsulfonyl)phenyl]-3(2H)-pyridazinone] |  |  |  | 128 to 130 °C | 
